In patent publication US7776833B2, “Use of cyclic bioisosters of purine system derivatives for treating diseases produced by disorders of niterergic and dopaminergic systems” (priority 2003, dated 2010):

Assays:
Format in all cases: in vivo, Wistar rats
[1] = tested on: nitric oxide synthase (NOS); assay: Nitric oxide synthase activity in brain regions, radiometric [3H]L-citrulline method; details: 3 x 20 mg/kg intramuscularly
Summary of the method: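 Rat cortex, hippocampus, mesencephalon, striatum, brainstem, hypothalamus and cerebellum were homogenized in 20 mM HEPES pH 7.5, and the 11000 g supernatant was incubated 15-60 min at 37 °C with [3H]L-arginine, 0.2 mM CaCl2, FAD, FMN, NADPH and BH4. [3H]L-citrulline was counted after Dowex removal of arginine. Ca2+-dependent/independent activity was split using EDTA ± L-NAME, per mg Bradford protein.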

[2] = tested on: physical dependence from morphine (morphine abstinence); assay: Morphine abstinence syndrome, signs scored in the open field test; details: Morphine − (morphine + compound); compound 3 x 20 mg/kg intramuscularly; one value for the three compounds
[3] = tested on: nitrites and nitrates (NOx-); assay: Measurement of nitrates/nitrites (NOx-) in brain regions after the morphine abstinence experiment; details: 3 x 20 mg/kg intramuscularly
Summary of the method: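 Rat brain regions homogenized in 20 mM HEPES pH 7.5 at 4 °C; deproteinized supernatants treated with nitrate reductase, 25 μM NADPH, 25 μM FAD (37 °C, 30 min), then DAN in acid; naphthotriazole fluorescence (ex 365/em 405 nm) against sodium nitrate standard, expressed as nmol/mg protein (Bradford).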

[4] = Groups Nos. 3-14, compound without morphine, one value for all 12 compounds
[5] = Morphine + compound, one value for the three compounds

## O=C([O-])c1ccc2c(=O)[nH][nH]c(=O)c2c1.O=C([O-])c1ccc2c(=O)[nH][nH]c(=O)c2c1.[Na+].[Na+] [Compound 18, disodium salt of 6-carboxy-benzo [d]-3H-pyridazine-1,4-dione]
[1]; [4]
  Activity of NOS, hippocampus: 3.09 ± 0.16 nmol/min/mg of protein
  Activity of NOS, hypothalamus: 5.45 ± 0.24 nmol/min/mg of protein
  Activity of NOS, midbrain: 2.60 ± 0.29 nmol/min/mg of protein
  Activity of NOS, striatum: 1.26 ± 0.08 nmol/min/mg of protein
[1]; [5]
  Activity of NOS, hippocampus: 2.51 ± 0.19 nmol/min/mg of protein
  Activity of NOS, hypothalamus: 5.36 ± 0.33 nmol/min/mg of protein
  Activity of NOS, midbrain: 1.99 ± 0.29 nmol/min/mg of protein
  Activity of NOS, striatum: 1.29 ± 0.09 nmol/min/mg of protein
[2]
  Authentic differences (ξ-square criterion) in appearance of signs of abstinence: <<Wet dog>> shakes: 0.7562
  Authentic differences (ξ-square criterion) in appearance of signs of abstinence: Aggression: 0.8456
  Authentic differences (ξ-square criterion) in appearance of signs of abstinence: Convulsions: 0.7546
  Authentic differences (ξ-square criterion) in appearance of signs of abstinence: Diarrhea: 0.0032
  Authentic differences (ξ-square criterion) in appearance of signs of abstinence: Dyspnea: 0.0834
  Authentic differences (ξ-square criterion) in appearance of signs of abstinence: Forelimb jogging: 0.8217
  Authentic differences (ξ-square criterion) in appearance of signs of abstinence: Grit with teeth: 0.8652
  Authentic differences (ξ-square criterion) in appearance of signs of abstinence: Mastication: 0.1032
  Authentic differences (ξ-square criterion) in appearance of signs of abstinence: Piloerection: 0.2567
  Authentic differences (ξ-square criterion) in appearance of signs of abstinence: Ptosis: 0.0320
  Authentic differences (ξ-square criterion) in appearance of signs of abstinence: Rhinorrhea: 0.4032
  Authentic differences (ξ-square criterion) in appearance of signs of abstinence: Squeak when touched: 0.1342
[3]; [4]
  Nitrites, brainstem: 6.31 ± 0.58 nmol/mg of protein
  Nitrites, cerebellum: 6.66 ± 0.63 nmol/mg of protein
  Nitrites, cerebral cortex: 4.31 ± 0.37 nmol/mg of protein
  Nitrites, hippocampus: 6.47 ± 0.72 nmol/mg of protein
  Nitrites, hypothalamus: 6.77 ± 0.83 nmol/mg of protein
  Nitrites, midbrain: 6.65 ± 0.70 nmol/mg of protein
  Nitrites, striatum: 6.11 ± 0.29 nmol/mg of protein
[3]; [5]
  Nitrites, brainstem: 6.99 ± 0.82 nmol/mg of protein
  Nitrites, cerebellum: 5.85 ± 0.47 nmol/mg of protein
  Nitrites, cerebral cortex: 4.93 ± 0.39 nmol/mg of protein
  Nitrites, hippocampus: 5.24 ± 0.49 nmol/mg of protein
  Nitrites, hypothalamus: 6.91 ± 0.58 nmol/mg of protein
  Nitrites, midbrain: 5.75 ± 0.39 nmol/mg of protein
  Nitrites, striatum: 3.57 ± 0.42 nmol/mg of protein
